Data reported in ChEMBL document CHEMBL3045943, “Novel N-aryl(alkaryl)-2-[(3-R-2-oxo-2H-[1,2,4]triazino[2,3-c]quinazoline-6-yl)thio]acetamides: synthesis, cytotoxicity, anticancer activity, COMPARE analysis and docking” (2013).

Assays:
Type in all cases: functional
PC-3 = assay: Cytotoxicity against Homo sapiens (human) PC3 cells assessed as cell growth at 10 uM after 48 hr by SRB assay relative to control; settings: PC-3, 48 h, read-out: Activity
UO-31 [1] = assay: Cytotoxicity against Homo sapiens (human) UO31 cells assessed as cell growth at 10 uM after 48 hr by SRB assay relative to control; settings: UO-31, 48 h, read-out: Activity
A498 [2] = assay: Cytotoxicity against Homo sapiens (human) A498 cells assessed as cell growth at 10 uM after 48 hr by SRB assay relative to control; settings: A498, 48 h, read-out: Activity
UO-31 [3] = assay: Cytotoxicity against Homo sapiens (human) UO31 cells after 48 hr by SRB assay; settings: UO-31, 48 h
CAKI-1 = assay: Cytotoxicity against Homo sapiens (human) Caki1 cells after 48 hr by SRB assay; settings: CAKI-1, 48 h
ACHN = assay: Cytotoxicity against Homo sapiens (human) ACHN cells after 48 hr by SRB assay
IGROV-1 = assay: Cytotoxicity against Homo sapiens (human) IGROV1 cells after 48 hr by SRB assay; settings: IGROV-1, 48 h
SK-MEL-5 = assay: Cytotoxicity against Homo sapiens (human) SK-MEL-5 cells after 48 hr by SRB assay; settings: SK-MEL-5, 48 h
LOX IMVI = assay: Cytotoxicity against Homo sapiens (human) LOXIMVI cells after 48 hr by SRB assay
SF-295 = assay: Cytotoxicity against Homo sapiens (human) SF295 cells after 48 hr by SRB assay; settings: SF-295, 48 h
A549 = assay: Cytotoxicity against Homo sapiens (human) A549 cells after 48 hr by SRB assay; settings: A549, 48 h
A498 [4] = assay: Cytotoxicity against Homo sapiens (human) A498 cells after 48 hr by SRB assay; settings: A498, 48 h
MDA-MB-468 = assay: Cytotoxicity against Homo sapiens (human) MDA-MB-468 cells assessed as cell growth at 10 uM after 48 hr by SRB assay relative to control; settings: MDA-MB-468, 48 h, read-out: Activity
MCF7 = assay: Cytotoxicity against Homo sapiens (human) MCF7 cells assessed as cell growth at 10 uM after 48 hr by SRB assay relative to control; settings: MCF7, 48 h, read-out: Activity
RXF 393 = assay: Cytotoxicity against Homo sapiens (human) RXF393 cells assessed as cell growth at 10 uM after 48 hr by SRB assay relative to control; settings: RXF 393, 48 h, read-out: Activity
OVCAR-8 = assay: Cytotoxicity against Homo sapiens (human) OVCAR8 cells assessed as cell growth at 10 uM after 48 hr by SRB assay relative to control; settings: OVCAR-8, 48 h, read-out: Activity
OVCAR-4 = assay: Cytotoxicity against Homo sapiens (human) OVCAR4 cells assessed as cell growth at 10 uM after 48 hr by SRB assay relative to control; settings: OVCAR-4, 48 h, read-out: Activity
UACC-62 = assay: Cytotoxicity against Homo sapiens (human) UACC62 cells assessed as cell growth at 10 uM after 48 hr by SRB assay relative to control; settings: UACC-62, 48 h, read-out: Activity
UACC-257 = assay: Cytotoxicity against Homo sapiens (human) UACC257 cells assessed as cell growth at 10 uM after 48 hr by SRB assay relative to control; settings: UACC-257, 48 h, read-out: Activity
SK-MEL-28 = assay: Cytotoxicity against Homo sapiens (human) SK-MEL-28 cells assessed as cell growth at 10 uM after 48 hr by SRB assay relative to control; settings: SK-MEL-28, 48 h, read-out: Activity
Malme-3M = assay: Cytotoxicity against Homo sapiens (human) MALME-3M cells assessed as cell growth at 10 uM after 48 hr by SRB assay relative to control; settings: read-out: Activity
HOP-62 = assay: Cytotoxicity against Homo sapiens (human) HOP62 cells assessed as cell growth at 10 uM after 48 hr by SRB assay relative to control; settings: HOP-62, 48 h, read-out: Activity
OVCAR-3 = assay: Cytotoxicity against Homo sapiens (human) OVCAR3 cells after 48 hr by SRB assay; settings: OVCAR-3, 48 h
M14 = assay: Cytotoxicity against Homo sapiens (human) M14 cells after 48 hr by SRB assay; settings: M14, 48 h
U-251 [5] = assay: Cytotoxicity against Homo sapiens (human) U251 cells after 48 hr by SRB assay; settings: U-251, 48 h
HOP-92 = assay: Cytotoxicity against Homo sapiens (human) HOP92 cells after 48 hr by SRB assay; settings: HOP-92, 48 h
DU-145 = assay: Cytotoxicity against Homo sapiens (human) DU145 cells after 48 hr by SRB assay; settings: DU-145, 48 h
TK-10 = assay: Cytotoxicity against Homo sapiens (human) TK10 cells after 48 hr by SRB assay; settings: TK-10, 48 h
HT-29 = assay: Cytotoxicity against Homo sapiens (human) HT-29 cells assessed as cell growth at 10 uM after 48 hr by SRB assay relative to control; settings: HT-29, 48 h, read-out: Activity
HCT-15 = assay: Cytotoxicity against Homo sapiens (human) HCT15 cells assessed as cell growth at 10 uM after 48 hr by SRB assay relative to control; settings: HCT-15, 48 h, read-out: Activity
U-251 [6] = assay: Cytotoxicity against Homo sapiens (human) U251 cells assessed as cell growth at 10 uM after 48 hr by SRB assay relative to control; settings: U-251, 48 h, read-out: Activity
SNB-75 = assay: Cytotoxicity against Homo sapiens (human) SNB75 cells assessed as cell growth at 10 uM after 48 hr by SRB assay relative to control; settings: SNB-75, 48 h, read-out: Activity
[7] = read-out: pLC50 (the source's name) (converted)

Question: For `COc1ccccc1CNC(=O)CSc1nc2ccccc2c2nc(=O)c(-c3ccccc3)nn12`, which growth at 10 µM (PC-3) is on record?
Answer: The growth at 10 µM was 35.6%.

Question: What about the growth at 10 µM (UO-31 [1]) of the same compound?
Answer: Its growth at 10 µM is 43.8%.

Question: And the growth at 10 µM (A498 [2])?
Answer: The growth at 10 µM was -23.1%.

Question: And the GI50 (UO-31 [3])?
Answer: The GI50 was 1.86 µM.

Question: What about the LC50 (UO-31 [3]) of the same compound?
Answer: Its LC50 is over 100 µM.

Question: What about the TGI (UO-31 [3]; read-out: pTGI) of the same compound?
Answer: Its TGI is over 100 µM.

Question: And the GI50 (CAKI-1)?
Answer: Its GI50 is 1.91 µM.

Question: And the CC50 (CAKI-1; [7])?
Answer: Its CC50 is over 100 µM.

Question: And the TGI (CAKI-1; read-out: pTGI)?
Answer: The TGI was over 100 µM.

Question: What about the GI50 (ACHN) of the same compound?
Answer: Its GI50 is 1.86 µM.

Question: What about the CC50 (ACHN; [7]) of the same compound?
Answer: Its CC50 is over 100 µM.

Question: And the TGI (ACHN; read-out: pTGI)?
Answer: The TGI was over 100 µM.

Question: What about the GI50 (IGROV-1) of the same compound?
Answer: The GI50 was 3.02 µM.

Question: And the CC50 (IGROV-1; [7])?
Answer: The CC50 was over 100 µM.

Question: What about the TGI (IGROV-1; read-out: pTGI) of the same compound?
Answer: Its TGI is over 100 µM.

Question: What about the GI50 (SK-MEL-5) of the same compound?
Answer: The GI50 was 2.69 µM.

Question: And the LC50 (SK-MEL-5)?
Answer: Its LC50 is over 100 µM.

Question: And the TGI (SK-MEL-5; read-out: pTGI)?
Answer: The TGI was over 100 µM.

Question: What about the GI50 (LOX IMVI) of the same compound?
Answer: Its GI50 is 2.09 µM.

Question: And the CC50 (LOX IMVI; [7])?
Answer: The CC50 was over 100 µM.

Question: And the TGI (LOX IMVI; read-out: pTGI)?
Answer: Its TGI is over 100 µM.

Question: And the GI50 (SF-295)?
Answer: The GI50 was 2.45 µM.

Question: What about the CC50 (SF-295; [7]) of the same compound?
Answer: The CC50 was over 100 µM.

Question: What about the TGI (SF-295; read-out: pTGI (converted)) of the same compound?
Answer: The TGI was 8.51 µM.

Question: What about the GI50 (A549) of the same compound?
Answer: The GI50 was 2.34 µM.

Question: What about the CC50 (A549; [7]) of the same compound?
Answer: The CC50 was over 100 µM.

Question: What about the TGI (A549; read-out: pTGI) of the same compound?
Answer: Its TGI is over 100 µM.

Question: And the GI50 (A498 [4])?
Answer: Its GI50 is 1.17 µM.

Question: What about the LC50 (A498 [4]) of the same compound?
Answer: The LC50 was over 100 µM.

Question: And the TGI (A498 [4]; read-out: pTGI (converted))?
Answer: Its TGI is 4.07 µM.

Question: Which results are given for `COc1ccc(-c2nn3c(SCC(=O)Nc4ccccc4Cl)nc4ccccc4c3nc2=O)cc1`?
Answer: growth at 10 µM (MDA-MB-468): 44.3%; growth at 10 µM (MCF7): 32.8%; growth at 10 µM (RXF 393): 37.4%; growth at 10 µM (OVCAR-8): 31.5%; growth at 10 µM (OVCAR-4): 45%; growth at 10 µM (UACC-62): 18.1%; growth at 10 µM (UACC-257): -17.1%; growth at 10 µM (SK-MEL-28): -5.98%; growth at 10 µM (Malme-3M): 18.8%; growth at 10 µM (HOP-62): 30.3%; GI50 (OVCAR-3): 1.38 µM; CC50 (OVCAR-3; [7]): > 100 µM; TGI (OVCAR-3; read-out: pTGI (converted)): 3.31 µM; GI50 (M14): 2.63 µM; CC50 (M14; [7]): > 100 µM; TGI (M14; read-out: pTGI (converted)): 100 µM; GI50 (U-251 [5]): 1.78 µM; LC50 (U-251 [5]): 18.6 µM; TGI (U-251 [5]; read-out: pTGI (converted)): 4.68 µM; GI50 (HOP-92): 1.82 µM; CC50 (HOP-92; [7]): 42.7 µM; TGI (HOP-92; read-out: pTGI (converted)): 9.12 µM; GI50 (DU-145): 1.38 µM; CC50 (DU-145; [7]): > 100 µM; TGI (DU-145; read-out: pTGI): > 100 µM; GI50 (TK-10): 2.19 µM; CC50 (TK-10; [7]): 33.9 µM; TGI (TK-10; read-out: pTGI (converted)): 7.24 µM; growth at 10 µM (HT-29): 5.16%; growth at 10 µM (HCT-15): 71.9%; growth at 10 µM (U-251 [6]): -22.6%; growth at 10 µM (SNB-75): 55.6%
